From ChEMBL document CHEMBL5390310, “Rapid PROTAC Discovery Platform: Nanomole-Scale Array Synthesis and Direct Screening of Reaction Mixtures” (ACS Med Chem Lett, 2023)
Calls of active or inactive are those of the source. No cut-off for these calls is given here.

The compounds below were run against T1, von Hippel-Lindau disease tumor suppressor/Bromodomain-containing protein 4 (Homo sapiens, UniProt O60885+P40337) (assay: Protac activity at VHL E3 ligase/BRD4 in HEK293 cells assessed as BRD4 degradation by HiBiT assay).
T1 sequence (P40337 whole entry, looked up, other chains not shown): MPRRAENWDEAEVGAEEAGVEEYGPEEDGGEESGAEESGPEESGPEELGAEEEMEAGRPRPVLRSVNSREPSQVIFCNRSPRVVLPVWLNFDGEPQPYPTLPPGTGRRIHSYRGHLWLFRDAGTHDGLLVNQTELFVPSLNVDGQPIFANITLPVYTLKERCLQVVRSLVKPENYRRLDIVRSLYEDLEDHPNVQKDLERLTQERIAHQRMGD
Assay type: cell-based

| SMILES | pDC50 | Activity |
| --- | --- | --- |
| Cc1sc2c(c1C)C(c1ccc(Cl)cc1)=N[C@@H](CC(=O)NCCCCCC(=O)NCCCC#Cc1cccc3c1CN(C1CCC(=O)NC1=O)C3=O)c1nnc(C)n1-2 (stereo in doubt) [listing 1 of 2 here] | 7.3 |  |
| Cc1ncsc1-c1ccc(CNC(=O)[C@@H]2C[C@@H](O)CN2C(=O)[C@@H](NC(=O)CCCCCCNC(=O)C[C@@H]2N=C(c3ccc(Cl)cc3)c3c(sc(C)c3C)-n3c(C)nnc32)C(C)(C)C)cc1 (stereo in doubt) [listing 1 of 2 here] | 6.9 |  |
| Cc1sc2c(c1C)C(c1ccc(Cl)cc1)=N[C@@H](CC(=O)N1CCN(CC#Cc3ccc4c(c3)CN(C3CCC(=O)NC3=O)C4=O)CC1)c1nnc(C)n1-2 (stereo in doubt) [listing 1 of 2 here] | 8 |  |
| Cc1sc2c(c1C)C(c1ccc(Cl)cc1)=N[C@@H](CC(=O)N1CCC(CCN3CCC4(CC3)CCN(c3ccc5c(c3)CN(C3CCC(=O)NC3=O)C5=O)CC4)CC1)c1nnc(C)n1-2 (stereo in doubt) [listing 1 of 2 here] | 9 |  |
| Cc1sc2c(c1C)C(c1ccc(Cl)cc1)=N[C@@H](CC(=O)N1CCC3(CCN(CC4CCN(c5ccc6c(c5)CN(C5CCC(=O)NC5=O)C6=O)CC4)CC3)CC1)c1nnc(C)n1-2 (stereo in doubt) [listing 1 of 2 here] | 9.2 |  |
| Cc1ncsc1-c1ccc(CNC(=O)[C@@H]2C[C@@H](O)CN2C(=O)[C@@H](NC(=O)CN2CCN(C(=O)CCCCCNC(=O)C[C@@H]3N=C(c4ccc(Cl)cc4)c4c(sc(C)c4C)-n4c(C)nnc43)CC2)C(C)(C)C)cc1 (stereo in doubt) [listing 1 of 2 here] | 6.3 |  |
| Cc1sc2c(c1C)C(c1ccc(Cl)cc1)=N[C@@H](CC(=O)N1CCC3(CC1)CCN(c1ccc4c(c1)CN(C1CCC(=O)NC1=O)C4=O)CC3)c1nnc(C)n1-2 (stereo in doubt) [listing 1 of 2 here] | 8.8 |  |
| Cc1sc2c(c1C)C(c1ccc(Cl)cc1)=N[C@@H](CC(=O)N1CCN(CC#Cc3ccc4c(c3)CN(C3CCC(=O)NC3=O)C4=O)CC1)c1nnc(C)n1-2 (stereo in doubt) [listing 2 of 2 here] |  | Active |
| Cc1sc2c(c1C)C(c1ccc(Cl)cc1)=N[C@@H](CC(=O)N1CCC(CCN3CCC4(CC3)CCN(c3ccc5c(c3)CN(C3CCC(=O)NC3=O)C5=O)CC4)CC1)c1nnc(C)n1-2 (stereo in doubt; 2P) [listing 1 of 2 here] | 9.2 |  |
| Cc1sc2c(c1C)C(c1ccc(Cl)cc1)=N[C@@H](CC(=O)N1CCC3(CCN(CC4CCN(c5ccc6c(c5)CN(C5CCC(=O)NC5=O)C6=O)CC4)CC3)CC1)c1nnc(C)n1-2 (stereo in doubt; 3P) [listing 1 of 2 here] | 9.1 |  |
| Cc1sc2c(c1C)C(c1ccc(Cl)cc1)=N[C@@H](CC(=O)N1CCN(CC#Cc3ccc4c(c3)CN(C3CCC(=O)NC3=O)C4=O)CC1)c1nnc(C)n1-2 (stereo in doubt; 4P) [listing 1 of 2 here] | 8.5 |  |
| Cc1sc2c(c1C)C(c1ccc(Cl)cc1)=N[C@@H](CC(=O)N1CCC3(CC1)CCN(c1ccc4c(c1)CN(C1CCC(=O)NC1=O)C4=O)CC3)c1nnc(C)n1-2 (stereo in doubt; 5P) | 8.6 |  |
| Cc1ncsc1-c1ccc(CNC(=O)[C@@H]2C[C@@H](O)CN2C(=O)[C@@H](NC(=O)CCCCCCNC(=O)C[C@@H]2N=C(c3ccc(Cl)cc3)c3c(sc(C)c3C)-n3c(C)nnc32)C(C)(C)C)cc1 (stereo in doubt; 7P) [listing 1 of 2 here] | 6.8 |  |
| Cc1ncsc1-c1ccc(CNC(=O)[C@@H]2C[C@@H](O)CN2C(=O)[C@@H](NC(=O)CN2CCN(C(=O)CCCCCNC(=O)C[C@@H]3N=C(c4ccc(Cl)cc4)c4c(sc(C)c4C)-n4c(C)nnc43)CC2)C(C)(C)C)cc1 (stereo in doubt; 8P) [listing 1 of 2 here] | 6.2 |  |
| Cc1sc2c(c1C)C(c1ccc(Cl)cc1)=N[C@@H](CC(=O)NCCCCCC(=O)NCCCC#Cc1cccc3c1CN(C1CCC(=O)NC1=O)C3=O)c1nnc(C)n1-2 (stereo in doubt; 9P) [listing 1 of 2 here] | 7.4 |  |

Further lines, results first:

| pDC50 | Activity | SMILES |
| --- | --- | --- |
| 9.1 |  | Cc1sc2c(c1C)C(c1ccc(Cl)cc1)=N[C@@H](CC(=O)N1CCN(CC3CCN(c4ccc5c(c4)CN(C4CCC(=O)NC4=O)C5=O)CC3)CC1)c1nnc(C)n1-2 (stereo in doubt) [listing 1 of 2 here] |
| 8.8 |  | Cc1sc2c(c1C)C(c1ccc(Cl)cc1)=N[C@@H](CC(=O)N1CCN(CCC3CCN(c4ccc5c(c4)CN(C4CCC(=O)NC4=O)C5=O)CC3)CC1)c1nnc(C)n1-2 (stereo in doubt) [listing 1 of 2 here] |
| 8.8 |  | Cc1sc2c(c1C)C(c1ccc(Cl)cc1)=N[C@@H](CC(=O)N1CCN(CCCC3CCN(c4ccc5c(c4)CN(C4CCC(=O)NC4=O)C5=O)CC3)CC1)c1nnc(C)n1-2 (stereo in doubt) [listing 1 of 2 here] |
| 9.3 |  | Cc1sc2c(c1C)C(c1ccc(Cl)cc1)=N[C@@H](CC(=O)NCCCCCC(=O)N1CCN(CCCC3CCN(c4ccc5c(c4)CN(C4CCC(=O)NC4=O)C5=O)CC3)CC1)c1nnc(C)n1-2 (stereo in doubt) [listing 1 of 2 here] |
| 9.7 |  | Cc1sc2c(c1C)C(c1ccc(Cl)cc1)=N[C@@H](CC(=O)N1CCN(CC3CCN(c4ccc5c(c4)CN(C4CCC(=O)NC4=O)C5=O)CC3)CC1)c1nnc(C)n1-2 (stereo in doubt; 1P) [listing 1 of 2 here] |
| 9.4 |  | Cc1sc2c(c1C)C(c1ccc(Cl)cc1)=N[C@@H](CC(=O)N1CCN(CCC3CCN(c4ccc5c(c4)CN(C4CCC(=O)NC4=O)C5=O)CC3)CC1)c1nnc(C)n1-2 (stereo in doubt; 6P) [listing 1 of 2 here] |
| 9.8 |  | Cc1sc2c(c1C)C(c1ccc(Cl)cc1)=N[C@@H](CC(=O)NCCCCCC(=O)N1CCN(CCCC3CCN(c4ccc5c(c4)CN(C4CCC(=O)NC4=O)C5=O)CC3)CC1)c1nnc(C)n1-2 (stereo in doubt; 10P) [listing 1 of 2 here] |
| 9.7 |  | Cc1sc2c(c1C)C(c1ccc(Cl)cc1)=N[C@@H](CC(=O)N1CCN(CCCC3CCN(c4ccc5c(c4)CN(C4CCC(=O)NC4=O)C5=O)CC3)CC1)c1nnc(C)n1-2 (stereo in doubt; 11P) [listing 1 of 2 here] |

The compounds below were run against T1, von Hippel-Lindau disease tumor suppressor/Bromodomain-containing protein 4 (assay: Protac activity at VHL E3 ligase/BRD4 in HEK293 cells assessed as degradation maximum by HiBiT assay relative to control).
Assay type: cell-based

| SMILES | Emax [%] |
| --- | --- |
| Cc1ncsc1-c1ccc(CNC(=O)[C@@H]2C[C@@H](O)CN2C(=O)[C@@H](NC(=O)CCCCCCNC(=O)C[C@@H]2N=C(c3ccc(Cl)cc3)c3c(sc(C)c3C)-n3c(C)nnc32)C(C)(C)C)cc1 (stereo in doubt) [listing 2 of 2 here] | 96 |
| Cc1ncsc1-c1ccc(CNC(=O)[C@@H]2C[C@@H](O)CN2C(=O)[C@@H](NC(=O)CN2CCN(C(=O)CCCCCNC(=O)C[C@@H]3N=C(c4ccc(Cl)cc4)c4c(sc(C)c4C)-n4c(C)nnc43)CC2)C(C)(C)C)cc1 (stereo in doubt) [listing 2 of 2 here] | 101 |
| Cc1sc2c(c1C)C(c1ccc(Cl)cc1)=N[C@@H](CC(=O)N1CCC(CCN3CCC4(CC3)CCN(c3ccc5c(c3)CN(C3CCC(=O)NC3=O)C5=O)CC4)CC1)c1nnc(C)n1-2 (stereo in doubt) [listing 2 of 2 here] | 100 |
| Cc1sc2c(c1C)C(c1ccc(Cl)cc1)=N[C@@H](CC(=O)N1CCC3(CC1)CCN(c1ccc4c(c1)CN(C1CCC(=O)NC1=O)C4=O)CC3)c1nnc(C)n1-2 (stereo in doubt) [listing 2 of 2 here] | 100 |
| Cc1sc2c(c1C)C(c1ccc(Cl)cc1)=N[C@@H](CC(=O)N1CCC3(CCN(CC4CCN(c5ccc6c(c5)CN(C5CCC(=O)NC5=O)C6=O)CC4)CC3)CC1)c1nnc(C)n1-2 (stereo in doubt) [listing 2 of 2 here] | 99 |
| Cc1sc2c(c1C)C(c1ccc(Cl)cc1)=N[C@@H](CC(=O)N1CCN(CC#Cc3ccc4c(c3)CN(C3CCC(=O)NC3=O)C4=O)CC1)c1nnc(C)n1-2 (stereo in doubt) [listing 2 of 2 here] | 96 |
| Cc1sc2c(c1C)C(c1ccc(Cl)cc1)=N[C@@H](CC(=O)NCCCCCC(=O)NCCCC#Cc1cccc3c1CN(C1CCC(=O)NC1=O)C3=O)c1nnc(C)n1-2 (stereo in doubt) [listing 2 of 2 here] | 93 |
| Cc1sc2c(c1C)C(c1ccc(Cl)cc1)=N[C@@H](CC(=O)N1CCC3(CCN(CC4CCN(c5ccc6c(c5)CN(C5CCC(=O)NC5=O)C6=O)CC4)CC3)CC1)c1nnc(C)n1-2 (stereo in doubt; 3P) [listing 2 of 2 here] | 80 |
| Cc1sc2c(c1C)C(c1ccc(Cl)cc1)=N[C@@H](CC(=O)N1CCN(CC#Cc3ccc4c(c3)CN(C3CCC(=O)NC3=O)C4=O)CC1)c1nnc(C)n1-2 (stereo in doubt; 4P) [listing 2 of 2 here] | 91 |
| Cc1ncsc1-c1ccc(CNC(=O)[C@@H]2C[C@@H](O)CN2C(=O)[C@@H](NC(=O)CCCCCCNC(=O)C[C@@H]2N=C(c3ccc(Cl)cc3)c3c(sc(C)c3C)-n3c(C)nnc32)C(C)(C)C)cc1 (stereo in doubt; 7P) [listing 2 of 2 here] | 94 |
| Cc1ncsc1-c1ccc(CNC(=O)[C@@H]2C[C@@H](O)CN2C(=O)[C@@H](NC(=O)CN2CCN(C(=O)CCCCCNC(=O)C[C@@H]3N=C(c4ccc(Cl)cc4)c4c(sc(C)c4C)-n4c(C)nnc43)CC2)C(C)(C)C)cc1 (stereo in doubt; 8P) [listing 2 of 2 here] | 80 |
| Cc1sc2c(c1C)C(c1ccc(Cl)cc1)=N[C@@H](CC(=O)NCCCCCC(=O)NCCCC#Cc1cccc3c1CN(C1CCC(=O)NC1=O)C3=O)c1nnc(C)n1-2 (stereo in doubt; 9P) [listing 2 of 2 here] | 83 |

Next, values leading:

| Emax [%] | SMILES |
| --- | --- |
| 100 | Cc1sc2c(c1C)C(c1ccc(Cl)cc1)=N[C@@H](CC(=O)N1CCN(CC3CCN(c4ccc5c(c4)CN(C4CCC(=O)NC4=O)C5=O)CC3)CC1)c1nnc(C)n1-2 (stereo in doubt) [listing 2 of 2 here] |
| 99 | Cc1sc2c(c1C)C(c1ccc(Cl)cc1)=N[C@@H](CC(=O)N1CCN(CCC3CCN(c4ccc5c(c4)CN(C4CCC(=O)NC4=O)C5=O)CC3)CC1)c1nnc(C)n1-2 (stereo in doubt) [listing 2 of 2 here] |
| 100 | Cc1sc2c(c1C)C(c1ccc(Cl)cc1)=N[C@@H](CC(=O)N1CCN(CCCC3CCN(c4ccc5c(c4)CN(C4CCC(=O)NC4=O)C5=O)CC3)CC1)c1nnc(C)n1-2 (stereo in doubt) [listing 2 of 2 here] |
| 100 | Cc1sc2c(c1C)C(c1ccc(Cl)cc1)=N[C@@H](CC(=O)NCCCCCC(=O)N1CCN(CCCC3CCN(c4ccc5c(c4)CN(C4CCC(=O)NC4=O)C5=O)CC3)CC1)c1nnc(C)n1-2 (stereo in doubt) [listing 2 of 2 here] |
| 89 | Cc1sc2c(c1C)C(c1ccc(Cl)cc1)=N[C@@H](CC(=O)N1CCN(CC3CCN(c4ccc5c(c4)CN(C4CCC(=O)NC4=O)C5=O)CC3)CC1)c1nnc(C)n1-2 (stereo in doubt; 1P) [listing 2 of 2 here] |
| 90 | Cc1sc2c(c1C)C(c1ccc(Cl)cc1)=N[C@@H](CC(=O)N1CCC(CCN3CCC4(CC3)CCN(c3ccc5c(c3)CN(C3CCC(=O)NC3=O)C5=O)CC4)CC1)c1nnc(C)n1-2 (stereo in doubt; 2P) [listing 2 of 2 here] |
| 79 | Cc1sc2c(c1C)C(c1ccc(Cl)cc1)=N[C@@H](CC(=O)N1CCN(CCC3CCN(c4ccc5c(c4)CN(C4CCC(=O)NC4=O)C5=O)CC3)CC1)c1nnc(C)n1-2 (stereo in doubt; 6P) [listing 2 of 2 here] |
| 99 | Cc1sc2c(c1C)C(c1ccc(Cl)cc1)=N[C@@H](CC(=O)NCCCCCC(=O)N1CCN(CCCC3CCN(c4ccc5c(c4)CN(C4CCC(=O)NC4=O)C5=O)CC3)CC1)c1nnc(C)n1-2 (stereo in doubt; 10P) [listing 2 of 2 here] |
| 99 | Cc1sc2c(c1C)C(c1ccc(Cl)cc1)=N[C@@H](CC(=O)N1CCN(CCCC3CCN(c4ccc5c(c4)CN(C4CCC(=O)NC4=O)C5=O)CC3)CC1)c1nnc(C)n1-2 (stereo in doubt; 11P) [listing 2 of 2 here] |
